# From PubChem BioAssay AID1259411 (Chemical Carcinogenesis Research Information System (CCRIS), 2018)
# Activity calls are given as the source filed them. How the calls were made is not given here.
# Test system: rodent carcinogenicity bioassays, tumor incidence
# Assay: CCRIS carcinogenicity studies
# Method in brief: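 NCI-built, expert-reviewed records of carcinogenicity and related test outcomes (mutagenicity, tumor promotion/inhibition) compiled from published and report sources, historical span 1985-2011, not updated.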
compound,measurement,setting,value
Cc1cc(-c2ccccc2C)ccc1N,carcinogen call,"Species: HAMSTER, Strain/Sex: SYRIAN/FEMALE, Route: SUBCUTANEOUS, Dose: 0, 100 MG/KG BW 1/WK FOR 20 WK (STUDY DURATION: 50 WK), Tumor Site: Type of Lesion: URINARY BLADDER: CARCINOMA",active; positive
same,carcinogen call,"Species: HAMSTER, Strain/Sex: SYRIAN/FEMALE, Route: SUBCUTANEOUS, Dose: 0.15 MMOL/KG IN PEANUT OIL 1/WK FOR 37 WK (TOTAL DOSE: 5.6 MMOL/KG), Tumor Site: Type of Lesion: URINARY BLADDER: TRANSITIONAL CELL CARCINOMA, SQUAMOUS CELL CARCINOMA",active; positive
same,carcinogen call,"Species: HAMSTER, Strain/Sex: SYRIAN/MALE,FEMALE, Route: SUBCUTANEOUS, Dose: 100 MG/KG 1/WK FOR 52 WK, Tumor Site: Type of Lesion: URINARY BLADDER: PAPILLOMA, CARCINOMA",active; positive
same,carcinogen call,"Species: HAMSTER, Strain/Sex: SYRIAN/MALE, Route: SUBCUTANEOUS, Dose: 0, 100 MG/KG BW 1/WK FOR 20 WK (STUDY DURATION: 50 WK), Tumor Site: Type of Lesion: URINARY BLADDER: CARCINOMA",active; positive
same,carcinogen call,"Species: HAMSTER, Strain/Sex: SYRIAN/MALE, Route: SUBCUTANEOUS, Dose: 0, 100 MG/KG IN PEANUT OIL 1/WK FOR 8 WK, THEN ONCE EVERY 2 WK FOR 18 MO (TOTAL MAXIMUM DOSE: 555 MG), Tumor Site: Type of Lesion: URINARY BLADDER: TRANSITIONAL CELL CARCINOMA, FORESTOMACH: SQUAMOUS CELL PAPILLOMA, INTESTINES (SMALL): ADENOCARCINOMA;, Tumor Site: Type of Lesion: URINARY BLADDER: TRANSITIONAL CELL CARCINOMA, FORESTOMACH: SQUAMOUS CELL PAPILLOMA, INTESTINES (SMALL): ADENOCARCINOMA",active; positive
same,carcinogen call,"Species: HAMSTER, Strain/Sex: SYRIAN/MALE, Route: SUBCUTANEOUS, Dose: 0.15 MMOL/KG IN PEANUT OIL 1/WK FOR 37 WK (TOTAL DOSE: 5.6 MMOL/KG), Tumor Site: Type of Lesion: URINARY BLADDER: TRANSITIONAL CELL CARCINOMA",active; positive
same,carcinogen call,"Species: RAT, Strain/Sex: ALBINO/MALE, Route: SUBCUTANEOUS, Dose: 2.8-3.5 G/KG, Tumor Site: Type of Lesion: INTESTINES, SALIVARY GLAND, EAR (DUCT), Tumor Site: Type of Lesion: INTESTINES, SALIVARY GLAND, EAR (DUCT)",active; positive
same,carcinogen call,"Species: RAT, Strain/Sex: F344/MALE, Route: SUBCUTANEOUS, Dose: 0, 150 MG/KG 1/WK FOR 3 WK FOLLOWED BY HIGH FAT DIET (20% CORN OIL) BEGINNING 12 WK POST LAST CARCINOGEN DOSE AND CONTIN, Tumor Site: Type of Lesion: PANCREAS: ADENOMA OR CARCINOMA",active; positive
same,carcinogen call,"Species: RAT, Strain/Sex: F344/MALE, Route: SUBCUTANEOUS, Dose: 0, 150 MG/KG 1/WK FOR 3 WK FOLLOWED BY NORMAL FAT DIET (4.5% CORN OIL) BEGINNING 12 WK POST LAST CARCINOGEN DOSE AND CON, Tumor Site: Type of Lesion: PANCREAS: ADENOMA OR CARCINOMA",active; positive
same,carcinogen call,"Species: RAT, Strain/Sex: F344/MALE, Route: SUBCUTANEOUS, Dose: 20 MG/KG 1/WK FOR 42 WK OR 50 MG/KG 1/WK FOR 20 WK, Tumor Site: Type of Lesion: PROSTATE GLAND: CARCINOMA (IN SITU)",active; positive
same,carcinogen call,"Species: RAT, Strain/Sex: WISTAR/FEMALE, Route: SUBCUTANEOUS, Dose: 2 MG/100 G 5/WK FOR 12 WK, Tumor Site: Type of Lesion: MAMMARY GLAND: CARCINOMA",active; positive
same,carcinogen call,"Species: RAT, Strain/Sex: WISTAR/MALE,FEMALE, Route: SUBCUTANEOUS, Dose: 2 MG/100 G 5/WK FOR LIFE, Tumor Site: Type of Lesion: INTESTINES (LARGE): POLYPLOID TUMOR (MULTIPLE)",active; positive
[N-]=[N+]=CC(=O)OC[C@H](N)C(=O)O,carcinogen call,"Species: RAT, Strain/Sex: WISTAR/MALE,FEMALE, Route: INTRAPERITONEAL, Dose: 5 MG/KG 1-2 TIMES PER WK FOR 6 MO, Tumor Site: Type of Lesion: KIDNEY: PAPILLARY EPITHELIAL TUMOR, CLEAR CELL TUMOR, TUBULAR ADENOMA, PANCREAS: ADENOCARCINOMA",active; positive
COc1cc(/C=C/C(=O)CC(=O)/C=C/c2ccc(O)c(OC)c2)ccc1O,carcinogen call,"Species: MOUSE, Strain/Sex: B6C3F1/FEMALE, Route: ORAL, Dose: 0, 2000, 10000, 50000 PPM IN FEED FOR 104 WK (STUDY DURATION: 104 WK), Dose: 0, 2000, 10000, 50000 PPM IN FEED FOR 104 WK (STUDY DURATION: 104 WK), Tumor Site: Type of Lesion: LIVER: HEPATOCELLULAR ADENOMA, HEPATOCELLULAR ADENOMA OR CARCINOMA",equivocal
same,carcinogen call,"Species: MOUSE, Strain/Sex: B6C3F1/MALE, Route: ORAL, Dose: 0, 2000, 10000, 50000 PPM IN FEED FOR 104 WK (STUDY DURATION: 104 WK), Dose: 0, 2000, 10000, 50000 PPM IN FEED FOR 104 WK (STUDY DURATION: 104 WK), Tumor Site: Type of Lesion: LIVER: HEPATOCELLULAR ADENOMA, HEPATOCELLULAR ADENOMA OR CARCINOMA, SMALL INTESTINE: CARCINOMA",equivocal
same,carcinogen call,"Species: RAT, Strain/Sex: F344/FEMALE, Route: ORAL, Dose: 0, 2000, 10000, 50000 PPM IN FEED FOR 104 WK (STUDY DURATION: 104 WK), Dose: 0, 2000, 10000, 50000 PPM IN FEED FOR 104 WK (STUDY DURATION: 104 WK), Tumor Site: Type of Lesion: CLITORAL GLAND: ADENOMA, ADENOMA OR CARCINOMA",equivocal
same,carcinogen call,"Species: RAT, Strain/Sex: F344/MALE, Route: ORAL, Dose: 0, 2000, 10000, 50000 PPM IN FEED FOR 104 WK (STUDY DURATION: 104 WK), Dose: 0, 2000, 10000, 50000 PPM IN FEED FOR 104 WK (STUDY DURATION: 104 WK)",inactive; negative
NC(=S)Nc1ccccc1,carcinogen call,"Species: MOUSE, Strain/Sex: B6C3F1/FEMALE, Route: ORAL, Dose: 0, 150, 300 PPM IN DIET, Dose: 0, 150, 300 PPM IN DIET",inactive; negative
same,carcinogen call,"Species: MOUSE, Strain/Sex: B6C3F1/MALE, Route: ORAL, Dose: 0, 150, 300 PPM IN DIET, Dose: 0, 150, 300 PPM IN DIET",inactive; negative
same,carcinogen call,"Species: RAT, Strain/Sex: F344/FEMALE, Route: ORAL, Dose: 0, 60, 120 PPM IN DIET, Dose: 0, 60, 120 PPM IN DIET",inactive; negative
same,carcinogen call,"Species: RAT, Strain/Sex: F344/MALE, Route: ORAL, Dose: 0, 60, 120 PPM IN DIET, Dose: 0, 60, 120 PPM IN DIET",inactive; negative
O=C1OC2(c3ccc(O)cc3Oc3cc(O)ccc32)c2ccccc21,carcinogen call,"Species: MOUSE, Strain/Sex: SWISS-WEBSTER/FEMALE, Route: DERMAL, Dose: 0, 1% IN 0.1 ML 0.1% SODIUM LAURYL SULFATE 1/WK FOR 18 MO (STUDY DURATION: 18 MO)",inactive; negative
same,carcinogen call,"Species: MOUSE, Strain/Sex: SWISS-WEBSTER/MALE, Route: DERMAL, Dose: 0, 1% IN 0.1 ML 0.1% SODIUM LAURYL SULFATE 1/WK FOR 18 MO (STUDY DURATION: 18 MO)",inactive; negative
CC(O)CNC(=O)N(CCCl)N=O (centres undefined),carcinogen call,"Species: RAT, Strain/Sex: F344/FEMALE, Route: ORAL, Dose: 0, 18 MG/L IN DRINKING WATER 5 D/WK FOR 30 WK (STUDY DURATION: LIFETIME)",inactive; negative
same,carcinogen call,"Species: RAT, Strain/Sex: F344/MALE, Route: ORAL, Dose: 0, 18 MG/L IN DRINKING WATER 5 D/WK FOR 30 WK (STUDY DURATION: LIFETIME), Tumor Site: Type of Lesion: LIVER: TUMOR, LUNG: TUMOR",active; positive
c1ccc2c(c1)cc1c3ccccc3c3cccc4ccc2c1c43,carcinogen call,"Species: MOUSE, Route: DERMAL, Tumor Site: Type of Lesion: INTEGUMENTARY SYSTEM (SKIN)",active; positive
same,carcinogen call,"Species: MOUSE, Route: SUBCUTANEOUS, Tumor Site: Type of Lesion: INJECTION SITE",active; positive
O=CC(=O)C[C@H](O)[C@H](O)CO,carcinogen call,"Species: MOUSE, Strain/Sex: CD-1/FEMALE, Route: DERMAL, Dose: 0, 20 UMOL/0.1 ML DMSO 2/WK FOR 5 WK FOLLOWED 1 WK LATER BY 0.1 ML ACETONE 2/WK FOR 47 WK (STUDY DURATION: 52 WK)",inactive; negative
CCOS(=O)(=O)OCC,carcinogen call,"Species: RAT, Route: ORAL, Tumor Site: Type of Lesion: FORESTOMACH",active; positive
same,carcinogen call,"Species: RAT, Route: SUBCUTANEOUS, Tumor Site: Type of Lesion: INJECTION SITE",active; positive
Cc1cc(C)c(N=Nc2c(O)c(S(=O)(=O)O)cc3cc(S(=O)(=O)O)ccc23)cc1C,carcinogen call,"Species: RAT, Route: ORAL, Tumor Site: Type of Lesion: LIVER",active; positive
COc1ccc(-c2ccccc2)cc1NNC(=O)OC(C)C,carcinogen call,"Species: Mouse, Strain/Sex: B6C3F1/Female (50/group), Route: Oral, Dose: 0, 10, 100, 175 ppm in diet for 78 wks, Dose: 0, 10, 100, 175 ppm in diet for 78 wks",inactive; negative; purity 92.5%
same,carcinogen call,"Species: Rat, Strain/Sex: Sprague-Dawley/Female (60/group), Route: Oral, Dose: 0, 20, 80, 160 ppm in diet for 104 wks, Dose: 0, 20, 80, 160 ppm in diet for 104 wks",inactive; negative; purity 92.5%
same,carcinogen call,"Species: Rat, Strain/Sex: Sprague-Dawley/Male (60/group), Route: Oral, Dose: 0, 20, 80, 200 ppm in diet for 104 wks, Dose: 0, 20, 80, 200 ppm in diet for 104 wks",inactive; negative; purity 92.5%
